From PubChem BioAssay (NCI)
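Cultured in 96-well plates, cells were exposed to test compound for 48 hours across five concentrations. Definition used: TGI = concentration required for complete inhibition of growth.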

Key:
Assay in all cases: DTP human tumour cell line panel, 48 h
[1] = test system: EKVX NSCLC
[2] = test system: PC-3 prostate
[3] = test system: IGROV1 ovarian
[4] = test system: NCI-H522 lung
[5] = test system: A498 renal
[6] = test system: NCI/ADR-RES ovarian
[7] = test system: BT-549 breast
[8] = test system: SK-MEL-5 melanoma
[9] = test system: HL-60(TB) leukemia
[10] = test system: A549 NSCLC
[11] = test system: SK-OV-3 ovarian
[12] = test system: ACHN renal
[13] = test system: MOLT-4 leukemia
[14] = test system: UO-31 renal
[15] = test system: SW-620 colon
[16] = test system: CAKI-1 renal
[17] = test system: SF-539 CNS
[18] = test system: UACC-257 melanoma
[19] = test system: NCI-H23 lung
[20] = test system: MCF7 breast
[21] = test system: U251 CNS
[22] = test system: T-47D breast
[23] = test system: OVCAR-5 ovarian
[24] = test system: HS 578T breast
[25] = test system: OVCAR-4 ovarian
[26] = test system: SK-MEL-2 melanoma
[27] = test system: SF-268 CNS
[28] = test system: UACC-62 melanoma
[29] = test system: LOX IMVI melanoma
[30] = test system: HCT-116 colon
[31] = test system: HCT-15 colon
[32] = test system: MDA-MB-435
[33] = test system: SNB-19 CNS
[34] = test system: KM12 colon
[35] = test system: HOP-62 NSCLC
[36] = test system: SF-295 CNS
[37] = test system: MALME-3M melanoma
[38] = test system: HCC-2998 colon
[39] = test system: M14 melanoma
[40] = test system: MDA-N
[41] = test system: 786-0 renal
[42] = test system: SR leukemia
[43] = test system: OVCAR-3 ovarian
[44] = test system: NCI-H460 lung
[45] = test system: CCRF-CEM leukemia
[46] = test system: DU-145 prostate
[47] = test system: COLO 205 colon
[48] = test system: K-562 leukemia
[49] = test system: SK-MEL-28 melanoma
[50] = test system: OVCAR-8 ovarian
[51] = test system: HT29 colon
[52] = test system: RPMI-8226 leukemia
[53] = test system: TK-10 renal
[54] = test system: SN12C renal
[55] = test system: NCI-H226 lung
[56] = test system: MDA-MB-231 breast

O=C(Nc1ccc(Cl)cc1)Oc1ccc(C(=S)Nc2ccc(Br)cc2)cc1
TGI [1]: 19.6 µM | TGI [2]: > 100 µM | TGI [3]: 25 µM | TGI [4]: 37.2 µM | TGI [5]: 54.9 µM | TGI [6]: 61.4 µM | TGI [7]: 54.1 µM | TGI [8]: 23 µM | TGI [9]: 18.1 µM | TGI [10]: > 100 µM | TGI [11]: > 100 µM | TGI [12]: > 100 µM | TGI [13]: 46.2 µM | TGI [14]: > 100 µM | TGI [15]: > 100 µM | TGI [16]: 35.8 µM | TGI [17]: 39.7 µM | TGI [18]: > 100 µM | TGI [19]: 63.9 µM | TGI [20]: 70.2 µM | TGI [21]: 75.5 µM | TGI [22]: 88.9 µM | TGI [23]: 38.4 µM | TGI [24]: > 100 µM | TGI [25]: 75.8 µM | TGI [26]: 27.7 µM | TGI [27]: > 100 µM | TGI [28]: 12.2 µM | TGI [29]: 9.32 µM | TGI [30]: 54.4 µM | TGI [31]: 35.7 µM | TGI [32]: 38.6 µM | TGI [33]: > 100 µM | TGI [34]: 25.5 µM | TGI [35]: > 100 µM | TGI [36]: > 100 µM | TGI [37]: 89.2 µM | TGI [38]: 33.6 µM | TGI [39]: 36 µM | TGI [40]: 67.2 µM | TGI [41]: 48.6 µM | TGI [42]: 36.7 µM | TGI [43]: 54.5 µM | TGI [44]: > 100 µM | TGI [45]: 20.9 µM | TGI [46]: > 100 µM | TGI [47]: 23.6 µM | TGI [48]: 57.2 µM | TGI [49]: 48.4 µM | TGI [50]: 22.7 µM | TGI [51]: 18.1 µM | TGI [52]: > 100 µM

COc1cc2c(c(OC)c1)C(C)=NC(C)C2 (configuration not stated)
TGI [1]: > 100 µM | TGI [2]: > 100 µM | TGI [3]: > 100 µM | TGI [4]: > 100 µM | TGI [5]: > 100 µM | TGI [7]: > 100 µM | TGI [8]: > 100 µM | TGI [9]: > 100 µM | TGI [10]: > 100 µM | TGI [11]: > 100 µM | TGI [12]: > 100 µM | TGI [53]: > 100 µM | TGI [13]: > 100 µM | TGI [14]: > 100 µM | TGI [54]: > 100 µM | TGI [15]: > 100 µM | TGI [16]: > 100 µM | TGI [17]: > 100 µM | TGI [18]: > 100 µM | TGI [19]: > 100 µM | TGI [20]: > 100 µM | TGI [22]: > 100 µM | TGI [24]: > 100 µM | TGI [27]: > 100 µM | TGI [28]: > 100 µM | TGI [55]: > 100 µM | TGI [29]: > 100 µM | TGI [30]: > 100 µM | TGI [31]: > 100 µM | TGI [32]: > 100 µM | TGI [33]: > 100 µM | TGI [34]: > 100 µM | TGI [35]: > 100 µM | TGI [36]: > 100 µM | TGI [37]: > 100 µM | TGI [38]: > 100 µM | TGI [39]: > 100 µM | TGI [40]: > 100 µM | TGI [41]: > 100 µM | TGI [42]: > 100 µM | TGI [44]: > 100 µM | TGI [45]: > 100 µM | TGI [46]: > 100 µM | TGI [56]: > 100 µM | TGI [47]: > 100 µM | TGI [48]: > 100 µM | TGI [49]: > 100 µM | TGI [50]: > 100 µM | TGI [51]: > 100 µM | TGI [52]: > 100 µM
